Laboratory results taken from ChEMBL document CHEMBL1201862, “PubChem BioAssay data set” (2004).
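Protocol summary: plate cells (96-well), add compound at 5 concentrations, incubate 48 h, interpolate endpoints linearly. Here, GI50 denotes the concentration required for 50% inhibition of growth.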 Calls of active or inactive are those of the source. No stated cut-off is given here; in the data, active = GI50 up to about 1.1 µM and inactive = higher.

What was measured:
Assay in all cases: growth of human tumour cells (NCI), 48 h
NCI/ADR-RES = tested on: NCI/ADR-RES
HOP-62 = tested on: HOP-62
HCC 2998 = tested on: HCC 2998
HL-60 = tested on: HL-60
MCF7 = tested on: MCF7
786-0 = tested on: 786-0
SK-MEL-28 = tested on: SK-MEL-28
K562 = tested on: K562
SF-539 = tested on: SF-539
NCI-H226 = tested on: NCI-H226
A498 = tested on: A498
UO-31 = tested on: UO-31
CCRF-CEM = tested on: CCRF-CEM
Malme-3M = tested on: Malme-3M
OVCAR-8 = tested on: OVCAR-8
T47D = tested on: T47D
SK-MEL-5 = tested on: SK-MEL-5
SN12C = tested on: SN12C
MDA-MB-435 = tested on: MDA-MB-435
RPMI-8226 = tested on: RPMI-8226

Compound	GI50 (NCI/ADR-RES)	GI50 (HOP-62)	GI50 (HCC 2998)	GI50 (HL-60)	GI50 (MCF7)	GI50 (786-0)	GI50 (SK-MEL-28)	GI50 (K562)	GI50 (SF-539)	GI50 (NCI-H226)	GI50 (A498)	GI50 (UO-31)	GI50 (CCRF-CEM)	GI50 (Malme-3M)	GI50 (OVCAR-8)	GI50 (T47D)	GI50 (SK-MEL-5)	GI50 (SN12C)	GI50 (MDA-MB-435)	GI50 (RPMI-8226)
CC[C@@]1(O)C(=O)OCc2c1cc1n(c2=O)Cc2c-1nc1ccccc1c2/C=N\NC(=O)C(N)CC(C)C (stereo not given in full)	0.0215 µM (active)	< 0.01 µM (active)	0.118 µM (active)	< 0.01 µM (active)	< 0.01 µM (active)	< 0.01 µM (active)	0.605 µM (active)	0.0267 µM (active)	< 0.01 µM (active)	0.0277 µM (active)	0.0314 µM (active)	< 0.0106 µM (active)	< 0.01 µM (active)	0.107 µM (active)	< 0.0132 µM (active)	< 0.01 µM (active)	< 0.0128 µM (active)	< 0.01 µM (active)	0.143 µM (active)	0.024 µM (active)
Cn1cnc([N+](=O)[O-])c1Sc1nc(N)nc2c1ncn2[C@H]1C[C@H](O)[C@@H](CO)O1	1.28 µM (inactive)	0.971 µM (active)	13.8 µM (inactive)	4.86 µM (inactive)	2.61 µM (inactive)	3.86 µM (inactive)	14.5 µM (inactive)	2.71 µM (inactive)	10.2 µM (inactive)	7.82 µM (inactive)	5.42 µM (inactive)	3.43 µM (inactive)	2.88 µM (inactive)	5.26 µM (inactive)	2.51 µM (inactive)	7.52 µM (inactive)	4.08 µM (inactive)	5.16 µM (inactive)	2.29 µM (inactive)	1.09 µM (active)
COc1ncc(/C=C2\OC(=O)c3ccccc32)c(OC)n1	40.5 µM (inactive)	12.1 µM (inactive)	76 µM (inactive)	> 100 µM (inactive)	25.8 µM (inactive)	9.1 µM (inactive)	56.1 µM (inactive)	29.2 µM (inactive)	12.7 µM (inactive)	66.1 µM (inactive)	12.3 µM (inactive)	12.9 µM (inactive)	39.1 µM (inactive)	10.7 µM (inactive)	8.13 µM (inactive)	23.6 µM (inactive)	9.95 µM (inactive)	> 100 µM (inactive)	77.8 µM (inactive)	5.94 µM (inactive)
COc1ccc(NC(C)=O)cc1C1CCC(=O)N1 (stereo not given)	> 100 µM (inactive)	> 100 µM (inactive)	> 100 µM (inactive)	> 100 µM (inactive)	> 100 µM (inactive)	> 100 µM (inactive)	> 100 µM (inactive)	> 100 µM (inactive)	> 100 µM (inactive)	> 100 µM (inactive)	> 100 µM (inactive)	> 100 µM (inactive)	> 100 µM (inactive)	> 100 µM (inactive)	> 100 µM (inactive)	> 100 µM (inactive)	> 100 µM (inactive)	> 100 µM (inactive)	> 100 µM (inactive)	> 100 µM (inactive)
N=C(N)NCC1CCCCCCN1 (stereo not given)	> 100 µM (inactive)	> 100 µM (inactive)	> 100 µM (inactive)	> 100 µM (inactive)	> 100 µM (inactive)	> 100 µM (inactive)	> 100 µM (inactive)	> 100 µM (inactive)	> 100 µM (inactive)	> 100 µM (inactive)	> 100 µM (inactive)	> 100 µM (inactive)	> 100 µM (inactive)	> 100 µM (inactive)	> 100 µM (inactive)	> 100 µM (inactive)	> 100 µM (inactive)	> 100 µM (inactive)	> 100 µM (inactive)	> 100 µM (inactive)
